Measurements taken from PubChem BioAssay AID248 (DTP/NCI, 2004).
Values joined by “and” are separate entries in the source; they are usually repeats but may differ in a detail not shown here. Identical values can stand only once. Toxic doses and inconclusive results are not listed. No stated cut-off is given here; in the data, active means T/C of 150% or more; inactive means T/C below 125%.

System: L1210 leukemia ip in BDF1 mice, survival T/C
Assay: NCI In Vivo Anticancer Drug Screen. Data for tumor model L1210 Leukemia (intraperitoneal) in B6D2F1 (BDF1) mice
Settings: endpoint: mean survival time, higher = longer survival
Procedure, shortened: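 Survival endpoint. Drug-treated group vs vehicle group, expressed as T divided by C. Tumor passaged by transplantation.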

[1] = dose: 100.0 mg/kg/injection, schedule: Q04DX002 (ip), vehicle: saline with Tween-80
[2] = dose: 200.0 mg/kg/injection, schedule: Q04DX002 (ip), vehicle: saline with Tween-80
[3] = dose: 100.0 mg/kg/injection, schedule: Q01DX009 (ip), vehicle: Klucel (hydroxypropylcellulose) (HPC)
[4] = dose: 100.0 mg/kg/injection, schedule: Q04DX003 (ip), vehicle: Klucel (hydroxypropylcellulose) (HPC)
[5] = dose: 200.0 mg/kg/injection, schedule: Q01DX009 (ip), vehicle: Klucel (hydroxypropylcellulose) (HPC)
[6] = dose: 200.0 mg/kg/injection, schedule: Q04DX003 (ip), vehicle: Klucel (hydroxypropylcellulose) (HPC)
[7] = dose: 400.0 mg/kg/injection, schedule: Q01DX009 (ip), vehicle: Klucel (hydroxypropylcellulose) (HPC)
[8] = dose: 400.0 mg/kg/injection, schedule: Q04DX003 (ip), vehicle: Klucel (hydroxypropylcellulose) (HPC)
[9] = dose: 100.0 mg/kg/injection, schedule: Q01DX009 (ip), vehicle: saline with Tween-80
[10] = dose: 100.0 mg/kg/injection, schedule: Q04DX003 (ip), vehicle: saline with Tween-80
[11] = dose: 200.0 mg/kg/injection, schedule: Q01DX009 (ip), vehicle: saline with Tween-80
[12] = dose: 200.0 mg/kg/injection, schedule: Q04DX003 (ip), vehicle: saline with Tween-80
[13] = dose: 400.0 mg/kg/injection, schedule: Q04DX003 (ip), vehicle: saline with Tween-80
[14] = dose: 100.0 mg/kg/injection, schedule: Q01DX001 (ip), vehicle: saline
[15] = dose: 200.0 mg/kg/injection, schedule: Q01DX001 (ip), vehicle: saline
[16] = dose: 100.0 mg/kg/injection, schedule: Q04DX003 (ip), vehicle: saline
[17] = dose: 200.0 mg/kg/injection, schedule: Q04DX003 (ip), vehicle: saline
[18] = dose: 50.0 mg/kg/injection, schedule: Q04DX003 (ip), vehicle: Klucel (hydroxypropylcellulose) (HPC)
[19] = dose: 100.0 mg/kg/injection, schedule: Q01DX009 (ip), vehicle: saline
[20] = dose: 200.0 mg/kg/injection, schedule: Q01DX009 (ip), vehicle: saline
[21] = dose: 400.0 mg/kg/injection, schedule: Q01DX009 (ip), vehicle: saline
[22] = dose: 400.0 mg/kg/injection, schedule: Q01DX001 (ip), vehicle: saline
[23] = dose: 400.0 mg/kg/injection, schedule: Q01DX009 (ip), vehicle: saline with Tween-80

Measured: T/C

CC(=O)NCC(O)C(O)C(O)C(/C=N/Nc1ccccc1)=N/Nc1ccccc1 (stereo unspecified)
inactive: dose: 50.0 mg/kg/injection, schedule: Q04DX002 (ip), vehicle: saline with Tween-80 88 % of control | [1] 92 % of control | [2] 98 % of control

OC1CCCC2CCCNC12 (stereo unspecified) (tested in a mixture with another compound)
inactive: [3] 105 % of control | [4] 93 % of control | [5] 95 % of control | [6] 105 % of control | [7] 90 % of control | [8] 89 % of control

Cc1ccc(S(=O)(=O)N/N=C(/c2ccccc2)c2cccs2)cc1
inactive: [9] 102 % of control | [10] 90 % of control | [11] 91 % of control | [12] 96 % of control | [13] 96 % of control

c1ccc2[nH]c(-c3c[nH]c4ccccc34)cc2c1
inactive: dose: 50.0 mg/kg/injection, schedule: Q01DX001 (ip), vehicle: saline 106 % of control | [14] 102 % of control | [15] 106 % of control

O=C(Cc1ccccc1)Nc1ccc[n+](Cc2ccc(S(=O)(=O)F)cc2)c1
inactive: [16] 108 % of control and 122 % of control | [17] 113 % of control and 114 % of control

FC(F)(F)c1ccc2c(c1)N(CCCCl)c1ccccc1S2
inactive: [18] 103 % of control | [4] 118 % of control | [6] 105 % of control | [8] 115 % of control

Cc1cc(N=NC(=N)N)ccc1NN=C(N)N
inactive: dose: 37.5 mg/kg/injection, schedule: Q01DX Z (oral), vehicle: carboxymethylcellulose (CMC) 115 % of control | dose: 75.0 mg/kg/injection, schedule: Q01DX Z (oral), vehicle: carboxymethylcellulose (CMC) 100 % of control | dose: 150.0 mg/kg/injection, schedule: Q01DX Z (oral), vehicle: carboxymethylcellulose (CMC) 96 % of control | dose: 300.0 mg/kg/injection, schedule: Q01DX Z (oral), vehicle: carboxymethylcellulose (CMC) 102 % of control

CCCCCCCCCCCCN1C(C)=CS/C1=C\C=C\c1scc(C)[n+]1CCCCCCCCCCCC
inactive: dose: 0.78 mg/kg/injection, schedule: Q01DX009 (ip), vehicle: saline with Tween-80 103 % of control | dose: 1.56 mg/kg/injection, schedule: Q01DX009 (ip), vehicle: saline with Tween-80 117 % of control | dose: 6.25 mg/kg/injection, schedule: Q01DX009 (ip), vehicle: saline with Tween-80 90 % of control

CCOC(=O)c1ccc(OC)nc1
inactive: [19] 104 % of control | [20] 102 % of control | [21] 98 % of control

Cc1cc(=O)c2cccc(-c3ccccc3)c2[nH]1
inactive: dose: 25.0 mg/kg/injection, schedule: Q01DX009 (ip), vehicle: acetone 95 % of control | dose: 25.0 mg/kg/injection, schedule: Q04DX003 (ip), vehicle: saline 101 % of control | dose: 50.0 mg/kg/injection, schedule: Q01DX009 (ip), vehicle: acetone 92 % of control | dose: 50.0 mg/kg/injection, schedule: Q04DX003 (ip), vehicle: saline 100 % of control | dose: 100.0 mg/kg/injection, schedule: Q01DX009 (ip), vehicle: acetone 92 % of control | [16] 100 % of control | [17] 96 % of control

O=C1CCCCCN1
inactive: [14] 101 % of control | [19] 100 % of control | dose: 100.0 mg/kg/injection, schedule: Q04DX002 (ip), vehicle: other 98 % of control | [15] 101 % of control | [20] 100 % of control | dose: 200.0 mg/kg/injection, schedule: Q04DX002 (ip), vehicle: other 95 % of control | [22] 103 % of control | dose: 400.0 mg/kg/injection, schedule: Q04DX002 (ip), vehicle: other 101 % of control

CC(/C=N/NC(=O)c1cnccn1)=N/NC(=O)c1cnccn1
inactive: dose: 50.0 mg/kg/injection, schedule: Q01DX001 (ip), vehicle: water 108 % of control | dose: 100.0 mg/kg/injection, schedule: Q01DX001 (ip), vehicle: water 108 % of control | dose: 200.0 mg/kg/injection, schedule: Q01DX001 (ip), vehicle: water 103 % of control | dose: 400.0 mg/kg/injection, schedule: Q01DX001 (ip), vehicle: water 110 % of control

COC(=O)C(C)=C1CCCCC1
inactive: [19] 106 % of control | [16] 93 % of control | [20] 96 % of control | [17] 98 % of control | [21] 96 % of control | dose: 400.0 mg/kg/injection, schedule: Q04DX003 (ip), vehicle: saline 95 % of control

CC1C2COCC2CC2OC21 (stereo unspecified)
inactive: dose: 50.0 mg/kg/injection, schedule: Q01DX001 (ip), vehicle: saline sonified 124 % of control | dose: 100.0 mg/kg/injection, schedule: Q01DX001 (ip), vehicle: saline sonified 109 % of control | dose: 200.0 mg/kg/injection, schedule: Q01DX001 (ip), vehicle: saline sonified 102 % of control

COc1cc(/C=N/NC(=O)c2ccncc2)cc(OC)c1OC
inactive: [9] 112 % of control | [10] 111 % of control | [11] 101 % of control | [12] 118 % of control | [23] 98 % of control | [13] 100 % of control

COC(=O)C1(CCOC(C)=O)CCCCC12OCCO2 (stereo unspecified)
inactive: dose: 100.0 mg/kg/injection, schedule: Q01DX001 (ip), vehicle: carboxymethylcellulose (CMC) 94 % of control | dose: 200.0 mg/kg/injection, schedule: Q01DX001 (ip), vehicle: carboxymethylcellulose (CMC) 100 % of control | dose: 400.0 mg/kg/injection, schedule: Q01DX001 (ip), vehicle: carboxymethylcellulose (CMC) 91 % of control

O=C(OCc1ccccc1CN1CCCCC1)c1cccc(Cl)c1
inactive: dose: 100.0 mg/kg/injection, schedule: Q04DX002 (ip), vehicle: Klucel (hydroxypropylcellulose) (HPC) 109 % of control | dose: 200.0 mg/kg/injection, schedule: Q04DX002 (ip), vehicle: Klucel (hydroxypropylcellulose) (HPC) 98 % of control | dose: 400.0 mg/kg/injection, schedule: Q04DX002 (ip), vehicle: Klucel (hydroxypropylcellulose) (HPC) 91 % of control

CCOC(=O)NCc1ccccc1
inactive: [3] 101 % of control | [4] 98 % of control | [5] 106 % of control | [6] 95 % of control | [7] 95 % of control | [8] 101 % of control

COc1ccc2nc3cc(Cl)ccc3c(NCCCCN(C)C)c2c1
inactive: dose: 6.0 mg/kg/injection, schedule: Q04DX003 (ip), vehicle: saline 97 % of control | dose: 12.5 mg/kg/injection, schedule: Q04DX003 (ip), vehicle: saline 99 % of control

N/C(=N\O)c1ncn(C2OC(CO)C(O)C2O)c1N (stereo unspecified)
inactive: dose: 100.0 mg/kg/injection, schedule: Q01DX005 (ip), vehicle: saline 103 % of control | dose: 200.0 mg/kg/injection, schedule: Q01DX005 (ip), vehicle: saline 108 % of control

Clc1ccc(/C(=C(\Br)c2ccccc2)c2ccccc2)cc1
inactive: [9] 96 % of control and 98 % of control | [11] 95 % of control and 101 % of control | [23] 96 % of control and 102 % of control

Nc1cc(C(Cl)(Cl)Cl)nc(Cl)n1
inactive: [4] 105 % of control | [6] 94 % of control | [8] 94 % of control

COc1nc2c(N)ncnc2n1C1OC(CO)C(O)C1O (stereo unspecified)
inactive: [14] 97 % of control | [15] 103 % of control | [22] 103 % of control

O=NO.O=N[O-].O=N[O-].[Co+3].[NH2-].[NH2-].[NH2-].[NH2-]
inactive: dose: 12.0 mg/kg/injection, schedule: Q01DX009 (ip), vehicle: Klucel (hydroxypropylcellulose) (HPC) 100 % of control | dose: 25.0 mg/kg/injection, schedule: Q01DX009 (ip), vehicle: Klucel (hydroxypropylcellulose) (HPC) 107 % of control | dose: 25.0 mg/kg/injection, schedule: Q04DX003 (ip), vehicle: Klucel (hydroxypropylcellulose) (HPC) 103 % of control | dose: 50.0 mg/kg/injection, schedule: Q01DX009 (ip), vehicle: Klucel (hydroxypropylcellulose) (HPC) 102 % of control | [18] 96 % of control | [4] 94 % of control and 110 % of control

CCOC(=O)/C(=C\c1ccc(N(C)C)cc1)c1nc2ccccc2[nH]1
inactive: [1] 92 % of control | [2] 92 % of control | dose: 400.0 mg/kg/injection, schedule: Q04DX002 (ip), vehicle: saline with Tween-80 104 % of control
